Experimental data reported in publication PMC7859449, “Short Chain (≤C4) Esterification Increases Bioavailability of Rosmarinic Acid and Its Potency to Inhibit Vascular Smooth Muscle Cell Proliferation” (Frontiers in Pharmacology, 2021).
Several values for one entry are separate records, joined by “and”; a condition that tells them apart may be missing. Equal values may be shown once. Read-outs that look alike come from different tables or passages of the source.

Legend:
[1] = design: method as in earlier work; conditions: rats and humans; ref Nakazawa and Ohsawa, 1998; Baba et al., 2005; Wang et al., 2017; cited from earlier work
[2] = design: method as in Baba et al., 2005; conditions: human; ref Baba et al., 2005; cited from earlier work
[3] = Stability of RA QC samples under different storage conditions; assay type: physicochemical, rat
[4] = test system: PDGF-BB-induced VSMC proliferation; experiment: Proliferation assay (resazurin conversion) in PDGF-BB-stimulated VSMC; assay type: cell-based, rat; conditions: for activity at 10 µM / IC50: Rattus norvegicus, resazurin; for activity at 10 µM: VSMC, 10 μmol/L, PDGF-BB 20 ng/mL 48 h, read-out: VSMC proliferation at 10 μmol/L (relative to vehicle control, RU); for IC50: PDGF-BB-induced VSMC proliferation
Experimental: Primary VSMC were cultivated in DMEM-F12 (1:1) supplemented with 20% fetal bovine serum, 30 μg/ml gentamicin, and 15 ng/mL amphotericin B at 37°C in an incubator with 5% CO2 flow in a humidified atmosphere. Passages 4 to 12 were used in experiments.
Resazurin conversion to fluorescent resorufin was used as a measure for cell proliferation. Primary VSMC were seeded at 5 × 10^3 cells/well in a 96-well plate to grow for the next 24 h. Cells were then synchronized into G0 phase by serum deprivation for 24 h, pretreated with compounds for 30 min and stimulated with 20 ng/mL PDGF-BB for the next 48 h. After one washing step, cells were incubated in starvation medium containing 10 μg/mL resazurin for 2 h, and changes in fluorescence were monitored in a Tecan Spark (Tecan Group, Männedorf, Switzerland) plate reader at an excitation wavelength of 535 nm and an emission wavelength of 580 nm.

[5] = design: method as in Nakazawa and Ohsawa, 1998; conditions: rat; ref Nakazawa and Ohsawa, 1998; cited from earlier work
VSMC = experiment: Cytotoxicity assay (LDH release) in PDGF-induced VSMC; assay type: cell-based; conditions: PDGF-BB 24 h
Experimental: Increased lactate dehydrogenase (LDH) release is an indicator for the loss of cell membrane integrity, associated with cell death. Determination of LDH release in response to increasing concentrations of RAME (7), RAET (8), RABU (9), RAOCT (10) and RADOD (11) was performed as previously described ([Liu et al., 2018]).
FIGURE 4 Cytotoxicity of RA esters in PDGF-induced VSMC. VSMC were pretreated with 0.1% DMSO or increasing concentrations of RA esters as indicated for 30 min, stimulated with 20 ng/mL PDGF-BB for 24 h, and released LDH was determined. Digitonin (80 μmol/L) was used as a positive control. Graphs show means ± SD out of 3 (RAME, RAET and RABU) and 4 (RAOCT and RADOD) independent experiments (n.s., not significant, p > 0.05, **p < 0.01, ***p < 0.001, ANOVA/Bonferroni, “vehicle with PDGF-BB” vs. “RA ester with PDGF-BB”).

PDGF-BB-induced VSMC = experiment: Cell cycle analysis (PI staining, flow cytometry); assay type: cell-based, rat; conditions: 3 μmol/L, PDGF-BB 16 h
Experimental: Flow cytometry was used to analyze cell cycle progression. VSMC were seeded at a density of 10^5 cells per well in 12-well plates. After rendered quiescent, cells were treated with increasing concentrations of RAME (7), RAET (8), RABU (9) and RAOCT (10) or with 0.1% DMSO for 30 min followed by stimulation with 20 ng/mL PDGF-BB for 16 h. Cells were collected by trypsinization, washed and resuspended in a hypotonic propidium iodide (PI) solution containing 0.1% (v/v) Triton X-100, 0.1% (w/v) sodium citrate, and 50 μg/mL PI. PI-stained nuclei were analyzed on a FACSCalibur (BD Biosciences, Vienna, Austria) flow cytometer at an excitation wavelength of 488 nm and an emission wavelength of 585 nm.
FIGURE 5 Ethyl, butyl and octyl esters of rosmarinic acid (RA) inhibit the proliferation of VSMC by exerting the same mechanism of action as the methyl ester (A) Quiescent VSMC were treated with 0.1% DMSO or increasing concentrations of RA esters as indicated for 30 min, stimulated with 20 ng/mL PDGF-BB for 16 h and the cell cycle progression was analyzed using PI staining and flow cytometry. […]

cultured VSMC = experiment: Intracellular bioavailability of RA esters (LC-MS/MS of cytoplasmic fractions); assay type: in vitro ADME, rat; conditions: for intracellular concentration as share of applied concentration: 10 μmol/L applied; for intracellular content normalized to protein: at 8.5 h; for intracellularly accumulated concentration: after 0.5 h exposure to 10 μmol/L; for intracellular level relative to those of RAME and RAET: exposure to 10 μmol/L
Experimental: After cells had been lysed and membranes had been removed by centrifugation, as described in the previous section, half of the cytoplasmic fractions were collected in 1.5 mL eppendorf tubes, diluted with methanol in 1:3 ratios and centrifuged at 5,600 × g for 20 min to remove proteins. Supernatants were then subjected to LC-MS/MS analysis to determine the cytoplasmic concentrations of RA esters at each treatment time point up to 16 h PDGF-BB stimulation. Cell culture media were also collected prior to the lysis procedure, diluted with methanol in a manner described above and subjected to LC-MS/MS. […] Intracellular concentrations of RA esters were normalized to protein concentrations at each treatment time point. Details of the quantification method are shown in the Supplementary Material.
FIGURE 6 Esters of rosmarinic acid with longer alkyl groups show increased intracellular bioavailability.

CDK2 = test system: CDK2; design: method as in Liu et al., 2018; conditions: CDK2 kinase activity in vitro; ref Liu et al., 2018; cited from earlier work
CDK4 = test system: CDK4; design: method as in Liu et al., 2018; conditions: ref Liu et al., 2018; cited from earlier work
[6] = Long-term stability (15 d at -20°C), nominal 2 ng/mL
[7] = Long-term stability (15 d at -20°C), nominal 800 ng/mL
[8] = Post-preparative stability (8 h at 4°C), nominal 2 ng/mL
[9] = Post-preparative stability (8 h at 4°C), nominal 800 ng/mL
[10] = Short-term stability (8 h at room temperature), nominal 2 ng/mL
[11] = Short-term stability (8 h at room temperature), nominal 800 ng/mL
[12] = Stock Solution Stability (8 h at room temperature), nominal 2 ng/mL
[13] = Stock Solution Stability (8 h at room temperature), nominal 800 ng/mL

Compound: O=C(/C=C/c1ccc(O)c(O)c1)O[C@H](Cc1ccc(O)c(O)c1)C(=O)O [RA (6), Rosmarinic acid]
- amount of orally ingested RA absorbed [1]: up to 1.69%
- cumulative proportions of all RA metabolites detected in urine (of the administered dose) [2]: ~6%
- Measured Concentration ([3]; Freeze-thaw stability (three cycles), nominal 2 ng/mL): 2.14 ± 0.09 ng/mL
- Measured Concentration ([3]; Freeze-thaw stability (three cycles), nominal 800 ng/mL): 786.67 ± 50.06 ng/mL
- Measured Concentration [3, 6]: 2.18 ± 0.09 ng/mL
- RE [3, 6]: 8.83%
- Measured Concentration [3, 7]: 770.67 ± 50.01 ng/mL
- RE [3, 7]: -3.67%
- Measured Concentration [3, 8]: 1.88 ± 0.13 ng/mL
- RE [3, 8]: -5.83%
- Measured Concentration [3, 9]: 737.00 ± 8.00 ng/mL
- RE [3, 9]: -7.88%
- Measured Concentration [3, 10]: 1.79 ± 0.07 ng/mL
- RE [3, 10]: -10.67%
- Measured Concentration [3, 11]: 762.33 ± 27.75 ng/mL
- RE [3, 11]: -4.71%
- Measured Concentration [3, 12]: 1.90 ± 0.08 ng/mL
- RE [3, 12]: -4.83%
- Measured Concentration [3, 13]: 782.33 ± 27.43 ng/mL
- RE [3, 13]: -2.21%
- activity at 10 µM [4]: 78.1 ± 16.7%
- cumulative proportions of all RA metabolites detected in urine (of the administered dose) [5]: about 32%

Compound: CCCCCCCCCCCCOC(=O)[C@@H](Cc1ccc(O)c(O)c1)OC(=O)/C=C/c1ccc(O)c(O)c1 [RADOD (11), rosmarinic acid dodecyl ester]
- VSMC proliferation ([4]; 1 μmol/L (data not shown)): unaffected
- VSMC proliferation ([4]; 3 μmol/L (data not shown)): completely abrogated
- activity at 10 µM [4]: 5.4 ± 8.1%
- cell death (LDH release) (VSMC; 30 μmol/L): comparable to that of the positive control, digitonin

Compound: CCCCOC(=O)[C@@H](Cc1ccc(O)c(O)c1)OC(=O)/C=C/c1ccc(O)c(O)c1 [RABU (9), rosmarinic acid butyl ester]
- percentage of cells in G0/G1 compared to vehicle control (PDGF-BB-induced VSMC): significantly higher percentage of cells in G0/G1
- activity at 10 µM [4]: 30.8 ± 5.2%
- IC50 [4]: 2.84 µM
- cell death (LDH release) (VSMC; up to 30 μmol/L): did not induce cell death
- intracellular concentration as share of applied concentration (cultured VSMC): 60%
- intracellular content normalized to protein (cultured VSMC; 10 μmol/L): around 2 pmol per µg of protein
- intracellularly accumulated concentration (cultured VSMC): about 6 μmol/L
- intracellular level relative to those of RAME and RAET (cultured VSMC): ~3 fold

Compound: COC(=O)[C@@H](Cc1ccc(O)c(O)c1)OC(=O)C=Cc1ccc(O)c(O)c1 [RAME (7), rosmarinic acid methyl ester]
- IC50 (CDK2): 11.4 µM
- activity at 10 µM [4]: 41.5 ± 10.9%
- IC50 [4]: 7.9 µM
- activity of CDK4 (CDK4): affected only at much higher concentrations
- cell death (LDH release) (VSMC; up to 30 μmol/L): did not induce cell death
- intracellular concentration as share of applied concentration (cultured VSMC): about 20%
- intracellular content normalized to protein (cultured VSMC; 10 μmol/L): around 2 pmol per µg of protein

Compound: O=C(O)CCc1cccc(O)c1 [Compound 5, m-hydroxyphenylpropionic acid, reference compound]
- activity at 10 µM [4]: 120 ± 27.8%

Compound: CCOC(=O)[C@@H](Cc1ccc(O)c(O)c1)OC(=O)/C=C/c1ccc(O)c(O)c1 [RAET (8), rosmarinic acid ethyl ester]
- activity at 10 µM [4]: 32.8 ± 8.1%
- IC50 [4]: 3.37 µM
- cell death (LDH release) (VSMC; up to 30 μmol/L): did not induce cell death
- intracellular concentration as share of applied concentration (cultured VSMC): about 20%
- intracellular content normalized to protein (cultured VSMC; 10 μmol/L): around 2 pmol per µg of protein

Compound: CCCCCCCCOC(=O)[C@@H](Cc1ccc(O)c(O)c1)OC(=O)/C=C/c1ccc(O)c(O)c1 [RAOCT (10), rosmarinic acid octyl ester]
- percentage of cells in G0/G1 compared to vehicle control (PDGF-BB-induced VSMC): significantly higher percentage of cells in G0/G1
- activity at 10 µM [4]: 33.8 ± 14.7%
- IC50 [4]: 2.22 µM
- cell death (LDH release) (VSMC; 30 μmol/L): marked but not significant increase in LDH production
- LDH release (VSMC; 3 and 10 μmol/L): distinct LDH release, which however did not reach significance
- concentration within VSMC (cultured VSMC; 10 μmol/L, 16.5 h time point): remained relatively high
- intracellularly accumulated concentration (cultured VSMC): about 6 μmol/L
- intracellular level relative to those of RAME and RAET (cultured VSMC): ~3 fold and ~4 fold

Compound: COc1cc(/C=C/C(=O)O)ccc1O [Compound 4, ferulic acid, reference compound]
- activity at 10 µM [4]: 107 ± 17.3%

Compound: O=C(O)/C=C/c1cccc(O)c1 [Compound 3, m-coumaric acid, reference compound]
- activity at 10 µM [4]: 107 ± 15.2%
